Entries after “also recorded” stand apart in the source; their conditions may differ.
Assays:
[1] = target: T1, ALK2 (Homo sapiens, UniProt Q04771); assay: ALK2 phosphorylation: immunoprecipitation with ALK2 antibodies, phospho-tyrosine immunoblotting; format: cell-based; settings: 10 ng/mL, 15 minutes
T1 construct: Phosphorylation of this receptor was therefore examined in cell lysates; endogenous in cells; host or cells: primary HUVEC and HCMEC
T1 sequence (Q04771 21-509): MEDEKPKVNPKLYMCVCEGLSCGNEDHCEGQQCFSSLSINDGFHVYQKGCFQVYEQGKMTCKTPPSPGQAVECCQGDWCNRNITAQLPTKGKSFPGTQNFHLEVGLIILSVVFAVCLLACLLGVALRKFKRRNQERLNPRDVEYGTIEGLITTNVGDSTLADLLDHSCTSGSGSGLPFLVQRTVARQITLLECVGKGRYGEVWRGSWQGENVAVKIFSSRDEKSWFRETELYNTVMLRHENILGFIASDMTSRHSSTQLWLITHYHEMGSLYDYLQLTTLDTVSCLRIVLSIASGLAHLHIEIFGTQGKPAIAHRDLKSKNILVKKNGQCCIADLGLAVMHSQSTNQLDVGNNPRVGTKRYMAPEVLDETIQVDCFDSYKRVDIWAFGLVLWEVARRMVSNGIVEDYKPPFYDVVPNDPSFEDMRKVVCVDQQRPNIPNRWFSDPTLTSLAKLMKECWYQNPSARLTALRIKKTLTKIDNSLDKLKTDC
Procedure: Human umbilical vein endothelial cells (HUVEC) and human cutaneous microvascular endothelial cells (HCMEC) were provided by J. Bischoff (Children's Hospital Boston) and isolated as previously described^35. […] Cells were grown in culture using EGM-2 medium (Cambrex), containing 10% FBS and 1% Penicillin/Streptomycin, followed by human endothelial serum free medium (Gibco) 24 hours prior to all experimental conditions. Bone marrow derived mesenchymal stem cells (ScienCell Research Laboratories) were grown in mesenchymal stem cell medium (ScienCell Research Laboratories). Human corneal fibroblasts, from a stock initially provided by E. Hay (Harvard Medical School), were grown in RPMI medium, containing 10% FBS and 1% Penicillin/Streptomycin. […]
Immunoassays were performed using the following antibodies at concentrations (and using protocols) recommended by the respective manufacturers: FSP-1 (H00006275-M01; Stressgen), ALK2 (sc-5671), Phospho-tyrosine (sc-7020), VE-cadherin (sc-6458), TIE2 (sc-324, sc-9026), STRO-1 (sc-47733), CD44 (sc-71220), CD90 (sc-9163), Osteocalcin (sc-74495, sc-23790), SOX9 (sc-20095), COL2A1 (sc-59958, sc-52658), PPARγ2 (sc-22022; Santa Cruz Biotechnology), vWF (ab68545; Abcam); His (A00174; GenScript); α-SMA (A5228), β-actin (A1978; Sigma-Aldrich). […] Images were acquired using a Nikon 80i fluorescence microscope. […]

[2] = tested on: HUVEC and HCMEC; assay: Mesenchymal stem cell marker expression in treated endothelial cells; format: cell-based, human; settings: 10 ng/mL, 48 hours; for expression of mesenchymal stem cell genes CD10, CD13, CD44, CD73, CD90, CD120a, CD124 (real-time quantitative PCR): compared to control cells
Procedure: (§1) Human umbilical vein endothelial cells (HUVEC) and human cutaneous microvascular endothelial cells (HCMEC) were provided by J. Bischoff (Children's Hospital Boston) and isolated as previously described^35. […] Cells were grown in culture using EGM-2 medium (Cambrex), containing 10% FBS and 1% Penicillin/Streptomycin, followed by human endothelial serum free medium (Gibco) 24 hours prior to all experimental conditions. Bone marrow derived mesenchymal stem cells (ScienCell Research Laboratories) were grown in mesenchymal stem cell medium (ScienCell Research Laboratories). Human corneal fibroblasts, from a stock initially provided by E. Hay (Harvard Medical School), were grown in RPMI medium, containing 10% FBS and 1% Penicillin/Streptomycin. Primary human osteoblasts, chondrocytes, and adipocytes and their respective growth media were obtained from Cell Applications Inc. Recombinant TGF-β2 and BMP4 proteins (R&D Systems) were added to the serum free culture medium for all relevant experiments at a concentration of 10 ng/mL. Cells were treated for 15 minutes to assess ALK2 phosphorylation, 1 hour to measure Smad5 phosphorylation, or 48 hours to induce EndMT. All experiments for this study were performed at minimum in triplicate.
(§2) Immunoassays were performed using the following antibodies at concentrations (and using protocols) recommended by the respective manufacturers: FSP-1 (H00006275-M01; Stressgen), ALK2 (sc-5671), Phospho-tyrosine (sc-7020), VE-cadherin (sc-6458), TIE2 (sc-324, sc-9026), STRO-1 (sc-47733), CD44 (sc-71220), CD90 (sc-9163), Osteocalcin (sc-74495, sc-23790), SOX9 (sc-20095), COL2A1 (sc-59958, sc-52658), PPARγ2 (sc-22022; Santa Cruz Biotechnology), vWF (ab68545; Abcam); His (A00174; GenScript); α-SMA (A5228), β-actin (A1978; Sigma-Aldrich). Samples were run with Criterion precast SDS-PAGE Gels (Bio-Rad). HRP-conjugated IgG TrueBlot reagents (18-8814, 18-8816, 18-8817; eBioscience) were used at a dilution of 1:1000. TrueBlot IgG beads (eBioscience) were used for immunoprecipitation experiments. Alexa Fluor secondary antibodies (Invitrogen) were used at a dilution of 1:200. Images were acquired using a Nikon 80i fluorescence microscope.
Endothelial cells were stained in suspension using antibodies against TIE2, FSP-1, STRO-1, and His (described above) and the protocols provided by their respective manufacturer. Flow cytometry was performed at the Harvard Medical School, Department of Pathology flow cytometry core facility using a FACSDCalibur (BD Biosciences) cell sorter isolating 30,000 cells per sample.
RNA extractions were performed using the RNeasy Mini kit (Qiagen) and protocol. RNA samples were submitted to a core facility (Biopolymers Facility, Department of Genetics, Harvard Medical School) where real-time PCR experiments were conducted using the Syber Green PCR system (ABI) on an ABI 7500 cycler, with 40 cycles per sample. Cycling temperatures were as follows: denaturing 95° C.; annealing 60° C.; extension, 70° C. The following primers (Integrated DNA Technologies) were used: […]
Human umbilical vein endothelial cells (HUVEC) and human cutaneous microvascular endothelial cells (HCMEC) isolated as previously described (35). […] Cells were grown in culture using EGM-2 medium (Cambrex), containing 10% FBS and 1% Penicillin/Streptomycin, followed by human endothelial serum free medium (Gibco) 24 h prior to all experimental conditions.

[3] = tested on: Smad2 and Smad5; assay: Smad phosphorylation by immunoblotting; format: cell-based, human; settings: for Smad5 phosphorylation: 10 ng/mL, 1 hour; for phosphorylation of Smad2 and Smad5 (immunoblotting): HUVECs, 10 ng ml−1, 1 h
Procedure: as §1, §2
Human umbilical vein endothelial cells (HUVEC) and human cutaneous microvascular endothelial cells (HCMEC) isolated as previously described (35). […] Cells were grown in culture using EGM-2 medium (Cambrex), containing 10% FBS and 1% Penicillin/Streptomycin, followed by human endothelial serum free medium (Gibco) 24 h prior to all experimental conditions. Bone marrow derived mesenchymal stem cells (ScienCell Research Laboratories) were grown in mesenchymal stem cell medium (ScienCell Research Laboratories). Bone marrow derived hematopoietic stem cells (Lonza) were grown in HPGM medium (Lonza). Human corneal fibroblasts, from a stock provided by Dr. Elizabeth Hay (Harvard Medical School), were grown in RPMI medium, containing 10% FBS and 1% Penicillin/Streptomycin. Primary human osteoblasts, chondrocytes, and adipocytes and their respective growth media were obtained from Cell Applications, Inc. Recombinant TGF-β2, BMP4, and BMP7 proteins (R&D Systems) were added to the serum free culture medium for all relevant experiments at a concentration of 10 ng ml^−1. Recombinant VEGF (R&D Systems) was added to cultures at a concentration of 25 ng ml^−1. Dorsomorphin (Sigma-Aldrich) was added to cultures at a concentration of 5 μM.

Substance	ALK2 receptor phosphorylation (phospho-tyrosine) [1]	STRO-1 and other mesenchymal stem cell markers (immunoblotting) [2]	co-expression of TIE2 and mesenchymal stem cell marker STRO-1 (immunofluorescence microscopy or flow cytometry) [2]	expression of mesenchymal stem cell genes CD10, CD13, CD44, CD73, CD90, CD120a, CD124 (real-time quantitative PCR) [2]	Smad5 phosphorylation [3]	phosphorylation of Smad2 and Smad5 (immunoblotting) [3]
BMP4: Recombinant BMP4 protein (R&D Systems), ALK2 activating ligand, used at 10 ng/mL	induced receptor phosphorylation	strongly expressed	strong co-expression; also recorded: massive co-expression	greatly increased	phosphorylated	promoted phosphorylation of both Smad2 and Smad5
TGF-β2: Recombinant TGF-β2 protein (R&D Systems), ALK2 activating ligand, used at 10 ng/mL	induced receptor phosphorylation	strongly expressed	strong co-expression; also recorded: massive co-expression	greatly increased	phosphorylated	promoted phosphorylation of both Smad2 and Smad5

Reference: US20130078718A1, “CONVERSION OF VASCULAR ENDOTHELIAL CELLS INTO MULTIPOTENT STEM-LIKE CELLS” (PRESIDENT AND FELLOWS OF HARVARD COLLEGE, priority 2010, published 2013)
